Converted amounts (≈) assume the structure as drawn. Where two headings read alike, the source gives them in different places.
Key:
[1] = test system: prostaglandin synthesis; test: Inhibition of prostaglandin synthesis in washed platelet suspension (malondialdehyde formation after arachidonic acid); assay type: cell-based; conditions: in vitro; for IC50: read-out: IC50 (final concentration at 50% inhibition of malondialdehyde formation)
Method: Each of the compounds shown in Table 1 was tested to measure the inhibition of prostaglandin synthesis in a washed platelet suspension by measuring the malondialdehyde formation following the addition of arachidonic acid in vitro.

[2] = test system: rats; test: Antipyretic activity (peptone-induced rise in rectal temperature); assay type: in vivo, rat (male); conditions: against the control, oral, 200 mg/kg, rat; 5% peponte s.c. (0.5 ml/100 g)
Text: Male rats having a body weight of 200 to 250 g were used.
^(*) Inhibiting ratio against the control in oral administration at a

[3] = test system: mice; conditions: oral
[4] = test system: platelet aggregation in rabbit's platelet-rich plasma (PRP); test: cells; assay type: cell-based; conditions: collagen as aggregation inducer; for IC50: Oryctolagus cuniculus, Platelet, read-out: IC50 (final concentration at 50% inhibition of platelet aggregation)
Method: This was measured by the method of Born et al. Specifically, using collagen as an aggregation inducer, each of the compounds shown in Table 1 was tested to measure the inhibition of platelet aggregation in rabbit's platelet-rich plasma (PRP). Aspirin and mefenamic acid were used as controls.
^(*) Final concentration at 50% inhibition of platelet aggregation.

[5] = test system: guinea pigs; test: Anti-inflammatory activity (ultraviolet irradiation on the back of guinea pigs); assay type: in vivo, guinea pig (male)
Text: Male guinea pigs having a body weight of about 350 g were used. The back hair of each guinea pig was removed, and ultraviolet light was irradiated onto the back.

[6] = in vivo; conditions: mouse, po
[7] = test system: mice; test: Analgesic activity (acetic acid writhing method); assay type: in vivo, mouse (male); conditions: oral, intravenous, intraperitoneal, compared against aspirin and mefenamic acid, writhings counted 5 to 25 minutes after acetic acid
Method: The analgesic activity was tested by the acetic acid writhing method. Male mice having a body weight of 18 to 20 g were used. Each of the compounds shown in Table 1 was administered orally, intravenously and intraperitoneally, and then 0.2 ml of a 0.7% aqueous solution of acetic acid was administered intraperitoneally 60 minutes (in oral administration), 10 minutes (in intravenous administration), and 15 minutes (in intraperitoneal administration) after the administration of the test compounds.

[8] = oral, one hour before UV irradiation, guinea pigs

Row | Molecule | IC50 (final concentration at 50% inhibition of malondialdehyde formation) [1] | Inhibiting ratio [2] | LD50 [3] | IC50 (final concentration at 50% inhibition of platelet aggregation) [4] | ED50 [5, 8] | IC50 [1] | IC50 [4] | ED50 ([5]; Cavia porcellus, light or radiation study, 1 h, oral, one hour before UV irradiation, guinea pigs, read-out: ED50) | ED50 ([5]; Cavia porcellus, light or radiation study, po, 1 h) | LD50 [6] | analgesic activity [7]
1 | 3-methylphenylguanidine acetylsalicylate [Compound 3] | 3.7 µg/mL | 28.0% | 400 mg/kg | 7.0 µg/mL | 110 mg/kg | – | – | – | – | – | –
2 | Cc1cccc(Nc2ccccc2C(=O)O)c1C [Mefenamic acid, reference compound] | – | – | – | – | – | 1.4 µg/mL (≈ 5.8 µM) | > 20 µg/mL | 30 mg/kg | – | – | –
3 | CC(=O)Oc1ccccc1C(=O)O [Aspirin, acetylsalicylic acid, reference compound] | – | 81.0% | – | – | – | 2.4 µg/mL (≈ 13.3 µM) | 12.6 µg/mL (≈ 69.9 µM) | – | 90 mg/kg | 950 mg/kg | –
4 | 4-Methoxyphenylguanidine acetylsalicylate [Compound 11] | 3.3 µg/mL | 25.2% | 300 mg/kg | 9.6 µg/mL | 95 mg/kg | – | – | – | – | – | –
5 | 4-Carbamoylphenylguanidine acetylsalicylate [Compound 16] | 4.5 µg/mL | 72.0% | 1600 mg/kg | 12.5 µg/mL | 200 mg/kg | – | – | – | – | – | –
6 | 3,4-dimethylphenylguanidine acetylsalicylate [Compound 5] | 4.8 µg/mL | – | – | 2.0 µg/mL | 85 mg/kg | – | – | – | – | – | a marked analgesic activity
7 | 3-Hydroxy-4-carboethoxyphenylguanidine acetylsalicylate [Compound 17] | – | – | 1100 mg/kg | – | – | – | – | – | – | – | –
8 | CC(=O)Oc1ccccc1C(=O)O.N=C(N)Nc1ccccc1 [Compound 1] | 4.3 µg/mL | 74.1% | 400 mg/kg | 6.0 µg/mL | 140 mg/kg | – | – | – | – | – | –
9 | 4-ethoxyphenylguanidine acetylsalicylate [Compound 13] | 4.0 µg/mL | 62.9% | 600 mg/kg | 12.2 µg/mL | 85 mg/kg | – | – | – | – | – | –
10 | 4-methylphenylguanidine acetylsalicylate [Compound 4] | 2.4 µg/mL | 83.9% | 600 mg/kg | 4.5 µg/mL | 90 mg/kg | – | – | – | – | – | –
11 | 2-methylphenylguanidine acetylsalicylate [Compound 2] | 3.4 µg/mL | 88.1% | 400 mg/kg | 10.5 µg/mL | 65 mg/kg | – | – | – | – | – | –
